Reference: paper PMC9485725, “The AIRE G228W mutation disturbs the interaction of AIRE with its partner molecule SIRT1” (Frontiers in Immunology, 2022)

Biological target: T1, human SIRT1 (Homo sapiens, UniProt Q96EB6)
T1 construct: purchased Sigma–Aldrich S8846
T1 sequence (Q96EB6 1-747): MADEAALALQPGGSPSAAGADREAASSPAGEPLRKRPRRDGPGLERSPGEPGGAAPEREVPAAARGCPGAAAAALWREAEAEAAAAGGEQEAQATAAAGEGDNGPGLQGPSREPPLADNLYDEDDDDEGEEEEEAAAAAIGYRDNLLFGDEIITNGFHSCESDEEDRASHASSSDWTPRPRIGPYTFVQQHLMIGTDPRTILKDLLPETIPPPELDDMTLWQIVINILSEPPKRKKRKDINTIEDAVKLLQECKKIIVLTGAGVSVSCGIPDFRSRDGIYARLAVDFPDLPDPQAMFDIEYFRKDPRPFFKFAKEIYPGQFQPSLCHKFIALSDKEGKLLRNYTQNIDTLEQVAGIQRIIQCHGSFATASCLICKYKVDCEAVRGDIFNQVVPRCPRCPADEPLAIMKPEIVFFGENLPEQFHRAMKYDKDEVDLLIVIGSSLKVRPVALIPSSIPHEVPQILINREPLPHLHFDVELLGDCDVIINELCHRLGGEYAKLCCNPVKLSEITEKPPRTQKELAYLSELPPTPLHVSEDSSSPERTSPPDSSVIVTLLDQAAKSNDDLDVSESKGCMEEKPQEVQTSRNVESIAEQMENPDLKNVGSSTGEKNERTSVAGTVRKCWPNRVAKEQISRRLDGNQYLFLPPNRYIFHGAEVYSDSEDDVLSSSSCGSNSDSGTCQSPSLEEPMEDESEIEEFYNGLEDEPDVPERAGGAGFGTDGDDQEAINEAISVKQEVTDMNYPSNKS
Assay: Surface plasmon resonance (Biacore T200) of SAND peptides on immobilized SIRT1
Type: binding
Settings: for association with SIRT1 / association with SIRT1 with increasing peptide concentration / affinity (as seen through binding and dissociation) with SIRT1: SPR; for association with SIRT1: Biacore T200, CM5 chip, human SIRT1 immobilized in 10 mM sodium acetate pH 4.0 plus 20 µM NAD+, peptides (K222 acetylated) 20, 100, 200 μM, 20 μl/min, described in words; for association with SIRT1 / binding kinetics (association and dissociation) with SIRT1: contact time 300 s; for association with SIRT1 with increasing peptide concentration: six peptide concentrations 10, 15, 20, 50, 100, 200 µM plus control 0 µM, Supplementary Figure 1; for affinity (as seen through binding and dissociation) with SIRT1: wild-type versus mutant peptide; for affinity (as seen through binding and dissociation) with SIRT1 / binding kinetics (association and dissociation) with SIRT1: in words; for binding kinetics (association and dissociation) with SIRT1: SPR sensorgrams, 20, 100, 200 µM, dissociation time 1200 s
Method: The surface plasmon resonance (SPR) experiments were performed on Biacore Model T200 equipment (GE Healthcare Biosciences, Uppsala, Sweden). For the immobilization of human SIRT1 (catalog number S8846, Sigma–Aldrich, Saint Louis, MO), a CM5 sensor chip S series (GE Healthcare Biosciences) has carboxylic groups available for covalent coupling was used. All solutions used were purchased from the equipment supplier (GE Healthcare Biosciences). The procedures described here were performed automatically with the Biacore instrument using pre-established programs for binding amines in peptides or proteins.
Briefly, the carboxylic groups on the CM5 sensor chip surface were activated with EDC + NHS, forming the NHS ester reactive intermediate, which, after washing with HBS-N, readily reacted with amines dissolved in the immobilization solution. The human SIRT1 ligand was dissolved in 10 mM sodium acetate pH 4.0 plus 20 µM NAD+ (catalog number N1636, beta-nicotinamide adenine dinucleotide hydrate, Sigma–Aldrich), which was immobilized onto the Biacore sensor chip according to the manufacturer´s instructions.
To detect interactions between SIRT1 and AIRE WT or AIRE G228W mutant SAND domain peptides, different concentrations of peptides were injected onto the CM5 chip with immobilized SIRT1 protein. […] The surface was regenerated between samples by injecting 2.0 M glycine pH 2.0 (30 s, 30 μl/min) followed by injection of 2.0 M NaCl (30 s, 30 μl/min). The stabilization period between injections after regeneration was 200 s.
The respective sequences of the twenty-amino acid peptide residues (Synbio Technologies, Monmouth Junction, NJ, USA) comprising positions 211 to 230 of the SAND domain of the human AIRE protein are as follows: from the C to N-terminus, AIRE wild-type ([…]) and AIRE G228W mutant ([…]). The underlined K residue represents the position where the acetyl radical was added. The experiment determined whether the K residue underlined was acetylated or not. The AIRE wild-type or AIRE G228W mutation data are available through GenBank NCBI (https://www.ncbi.nlm.nih.gov/) accession numbers (NM_000383.4): c.682G>T G [GGG] > W [TGG], coding sequence variant autoimmune regulator (NP_000374.1): p. Gly228TrpG (Gly) > W missense variant, DbSNP (https://www.ncbi.nlm.nih.gov/snp/rs121434257) and ClinVar (https://www.ncbi.nlm.nih.gov/clinvar/variation/3313/).
Kinetic data were analyzed with Anabel Analysis of Binding Events software ([32]), available at (www.skscience.org/anabel). Data obtained with the different concentrations of AIRE WT or mutant peptides were combined in the same graph.

IQQVFESGGSKKCIQVGWEF [mutant W228 SAND peptide, twenty-amino acid peptide comprising positions 211 to 230 of the SAND domain of the human AIRE protein, G228W mutant]
association with SIRT1: less able to associate with SIRT1 | association with SIRT1 (listed as G228W mutant peptide): weaker association | association with SIRT1 (listed as mutant AIRE SAND peptide (Trp228)): lesser association affinity | association with SIRT1 with increasing peptide concentration: not observed | affinity (as seen through binding and dissociation) with SIRT1: weaker association

IQQVFESGGSKKCIQVGGEF [wild-type SAND G228 peptide, twenty-amino acid peptide comprising positions 211 to 230 of the SAND domain of the human AIRE protein, wild-type]
binding kinetics (association and dissociation) with SIRT1 (listed as WT AIRE SAND peptide (Gly228)): associated and dissociated with SIRT1 throughout the analysis | binding kinetics (association and dissociation) with SIRT1 (listed as wild-type SAND domain peptide): bound faster and dissociated longer | association with SIRT1: more significant association capacity | association with SIRT1 with increasing peptide concentration: progressive increase in the association | affinity (as seen through binding and dissociation) with SIRT1: stronger affinity
